Consider ten compounds from ChEMBL document CHEMBL4602664, “Chrysosporazines F-M: P-Glycoprotein Inhibitory Phenylpropanoid Piperazines from an Australian Marine Fish Derived Fungus, Chrysosporium sp. CMB-F294” (J Nat Prod, 2020).

A value given as a limit tells only on which side of the number the result lay.

For one assay, the system named is SW-620. Description: Antiproliferative activity against human SW620 cells assessed as reduction in cell viability after 48 hrs by MTT assay. Particulars: SW-620, 48 h. The format is functional, cell-based.
The test system of the next assay is Escherichia coli. As to the kind of experiment: Antibacterial activity against Escherichia coli ATCC 11775 assessed as reduction in microbial growth after 24 hrs by spectrophotometric method. Format: functional, organism-based. Particulars: ATCC 11775, 24 h.
The next assay concerns Candida albicans. As to the kind of experiment: Antifungal activity against Candida albicans ATCC 10231 assessed as reduction in microbial growth after 48 hrs by spectrophotometric method. The format is functional, organism-based. Conditions: ATCC 10231, 48 h.
The next assay deals with Staphylococcus aureus. Description: Antibacterial activity against Staphylococcus aureus ATCC 25923 assessed as reduction in microbial growth after 24 hrs by spectrophotometric method. The format is functional, organism-based. Particulars: ATCC 25923, 24 h.
Another assay concerns SW620/AD300. Description: Antiproliferative activity against human SW620/AD300 cells assessed as reduction in cell viability after 48 hrs by MTT assay. Conditions: SW620/AD300, 48 h. Format: functional, cell-based. (In general: Tetrazolium dyes change colour on reduction, which living cells bring about.)

Regarding `COc1c2c(cc3c1[C@H](c1ccccc1)[C@H]1C(=O)N4C[C@H](Cc5ccccc5)N(C(C)=O)C[C@@H]4[C@@H]31)OCO2`, the IC50 in the assay with SW-620, in the assay with Escherichia coli, in the assay with Candida albicans and in the assay on Staphylococcus aureus was greater than 30 µM each time.
Regarding `COc1cc(C[C@H]2CN3C(=O)/C(=C/c4ccccc4)[C@H](c4cc(OC)c5c(c4)OCO5)[C@H]3CN2C(C)=O)cc2c1OCO2`, the IC50 with SW-620, with Escherichia coli, in the assay with Candida albicans and in the assay with Staphylococcus aureus was greater than 30 µM in each case.
Consider `COc1cc([C@H]2/C(=C\c3ccccc3)C(=O)N3C[C@H](Cc4ccccc4)N(C(C)=O)C[C@H]23)cc2c1OCO2`, for which the IC50 in the assay with SW-620, in the assay with Escherichia coli, in the assay with Candida albicans and with Staphylococcus aureus was greater than 30 µM in each case.
`COc1cc(C[C@H]2CN3C[C@@H]4[C@@H](c5ccccc5)c5c(cc6c(c5OC)OCO6)[C@@H]4[C@H]3CN2C(C)=O)cc2c1OCO2`: the IC50 in the assay with SW-620, in the assay with Escherichia coli, with Candida albicans and with Staphylococcus aureus was greater than 30 µM each time.
As to `COc1cc([C@@H]2[C@H]3CN(C(C)=O)[C@@H](Cc4ccccc4)CN3C(=O)[C@@]23O[C@H]3c2ccccc2)cc2c1OCO2`, the IC50 in the assay with SW-620, with Escherichia coli, in the assay on Candida albicans and in the assay on Staphylococcus aureus was greater than 30 µM throughout.
In the case of `COc1c2c(cc3c1[C@H](c1ccccc1)[C@@]1(O)C(=O)N4C[C@H](Cc5ccccc5)N(C(C)=O)C[C@@H]4[C@@H]31)OCO2`, the IC50 with SW-620, in the assay on Escherichia coli, with Candida albicans and in the assay on Staphylococcus aureus was greater than 30 µM throughout.
With `COc1cc(C[C@H]2CN3C(=O)[C@@]4(O[C@H]4c4ccccc4)[C@H](c4cc(OC)c5c(c4)OCO5)[C@H]3CN2C(C)=O)cc2c1OCO2`, the IC50 with SW-620, in the assay with Escherichia coli, with Candida albicans and with Staphylococcus aureus was greater than 30 µM each time.
Consider `COc1cc(C[C@H]2CN3C[C@]4(O)[C@@H](c5ccccc5)c5c(cc6c(c5OC)OCO6)[C@@H]4[C@H]3CN2C(C)=O)cc2c1OCO2`, for which the half-inhibitory concentration (IC50) in the assay with SW-620, in the assay on Escherichia coli, in the assay on Candida albicans and with Staphylococcus aureus was greater than 30 µM each time.
Take `COc1ccc(CCN(C)CCCC(C#N)(c2ccc(OC)c(OC)c2)C(C)C)cc1OC` (stereo not given): the IC50 (in general, the concentration at which inhibition is half-maximal) with SW620/AD300 was greater than 30 µM.
As for `COc1cccc2c1C(=O)c1c(O)c3c(c(O)c1C2=O)C[C@@](O)(C(=O)CO)C[C@@H]3O[C@H]1C[C@H](N)[C@H](O)[C@H](C)O1` [DOXORUBICIN], the IC50 in the assay on SW-620 came to 0.11 µM; in the assay with SW620/AD300, 4.9 µM.
